Test results as given in the Deep4Chem optical property database.
Values joined by “and” are separate entries in the source; they are usually repeats but may differ in a detail not shown here. Identical values can stand only once.

Experiment: photoluminescence quantum yield (fraction); solvent given as SMILES

In the case of `CCN(CC)c1ccc2cc(/C=C/c3cccc[n+]3CCCS(=O)(=O)[O-])c(=O)oc2c1`, the photoluminescence quantum yield (in C1CCOC1) is reported as 0.14, the photoluminescence quantum yield (in CC#N) is reported as 0.11 and the photoluminescence quantum yield (in CC(C)=O) is reported as 0.11. For the same molecule, the photoluminescence quantum yield (in CS(C)=O) was 0.16, the photoluminescence quantum yield (in Cc1ccccc1) was 0.02 and the photoluminescence quantum yield (in O) was 0.03. The photoluminescence quantum yield (in OCC(O)CO) was 0.19.

Work on `O=C1OC(=O)c2cc(Oc3ccccc3)c3c4ccc5c6c(cc(Oc7ccccc7)c(c7ccc1c2c73)c64)C(=O)OC5=O` yielded a photoluminescence quantum yield (in C1CCOC1) of 0.5, a photoluminescence quantum yield (in CN1CCCC1=O) of 0.2 and a photoluminescence quantum yield (in CN(C)C=O) of 0.6.

`CCN(CC)/C(C)=N\c1ccc2c3c(cccc13)C(=O)c1ccccc1-2` showed a photoluminescence quantum yield (in C1CCOC1) of 0.17, a photoluminescence quantum yield (in CCCCCC) of 0.21 and a photoluminescence quantum yield (in CCO) of 0.14. For the same molecule, the photoluminescence quantum yield (in CCOC(C)=O) was 0.22, the photoluminescence quantum yield (in CN(C)C=O) was 0.15 and the photoluminescence quantum yield (in CO) was 0.14. For the same molecule, the photoluminescence quantum yield (in Cc1ccccc1) was 0.56, the photoluminescence quantum yield (in ClC(Cl)(Cl)Cl) was 0.31 and the photoluminescence quantum yield (in ClC(Cl)Cl) was 0.49. The photoluminescence quantum yield (in ClCCl) was 0.5 and the photoluminescence quantum yield (in c1ccccc1) was 0.55.

`CCCCCCN1C(=O)c2cccc3c(-c4ccc(-c5cc(-c6ccccc6)n(-c6ccccc6)n5)s4)ccc(c23)C1=O` gave a photoluminescence quantum yield (in ClCCl) of 0.35.

Work on `C[N+]1=C(/C=C/C2=C3Oc4c(cc5c6c4CCCN6CCC5)C(c4ccccc4C(=O)O)=C3CCC2)C(C)(C)c2ccccc21` yielded a photoluminescence quantum yield (in CC#N) of 0.25, a photoluminescence quantum yield (in CCO) of 0.34 and a photoluminescence quantum yield (in CO) of 0.35. For the same molecule, the photoluminescence quantum yield (in ClC(Cl)Cl) was 0.51.

With `CC1(C)C(/C=C/C2=C(Cl)C(=C/C=C3/N(Cc4ccccc4)c4ccccc4C3(C)C)/CCC2)=[N+](Cc2ccccc2)c2ccccc21` the photoluminescence quantum yield (in CCO) was 0.117.

With `CCC1=C(C)C2=C(/C=C/c3ccc(OC)cc3)c3c(C)c(CC)c(C)n3[B-](F)(F)[N+]2=C1C` the photoluminescence quantum yield (in ClCCl) was 0.01.

For `N#Cc1c(C#N)c2ccccc2c2ccccc12`, the photoluminescence quantum yield (in ClC(Cl)Cl) was 0.17.

With `CN1c2ccc(C(=O)c3ccccc3)cc2Sc2cc(C(=O)c3ccccc3)ccc21` the photoluminescence quantum yield (in C1CCCCC1) was 0.43, the photoluminescence quantum yield (in C1CCOC1) was 0.28 and the photoluminescence quantum yield (in CN(C)C=O) was 0.18. It also gave a photoluminescence quantum yield (in Cc1ccccc1) of 0.4, a photoluminescence quantum yield (in ClC(Cl)Cl) of 0.21 and a photoluminescence quantum yield (in ClCCl) of 0.23.

`CCn1c2ccccc2c2cc(-c3cc(-c4ccc5c(c4)c4ccccc4n5CC)nc(-c4ccc(OC)cc4)n3)ccc21` gave a photoluminescence quantum yield (in C1CCOC1) of 0.45, a photoluminescence quantum yield (in CCOC(C)=O) of 0.56 and a photoluminescence quantum yield (in CN(C)C=O) of 0.68. The photoluminescence quantum yield (in Cc1ccccc1) was 0.54 and the photoluminescence quantum yield (in ClCCl) was 0.42.

Work on `c1ccc2c(-c3c4ccccc4c(-c4ccc(-n5c6ccccc6c6ccccc65)cc4)c4ccccc34)cccc2c1` yielded a photoluminescence quantum yield (in ClCCl) of 0.78.

Molecule `O=c1c2ccccc2c2c(C#C[Si](c3ccccc3)(c3ccccc3)c3ccccc3)c3c(=O)c4ccccc4c3c(C#C[Si](c3ccccc3)(c3ccccc3)c3ccccc3)c12` has a photoluminescence quantum yield (in ClC(Cl)Cl) of 0.09.

`CC1=CC(C)=[N+]2C1=C(c1ccc(I)cc1)c1c(C)cc(C)n1[B-]2(OCc1ccccc1)OCc1ccccc1` showed a photoluminescence quantum yield (in ClC(Cl)Cl) of 0.65.

With `CC(C)c1cc(C(C)C)c(B2c3ccccc3Oc3cc(N4c5ccccc5C(C)(C)c5ccccc54)ccc32)c(C(C)C)c1` the photoluminescence quantum yield (in Cc1ccccc1) was 1.

In the case of `CC1(C)C(/C=C/C2=C(Oc3ccc(CCN=C=S)cc3Cl)C(=C/C=C3/N(CCCS(=O)(=O)[O-])c4ccccc4C3(C)C)/CCC2)=[N+](CCCS(=O)(=O)[O-])c2ccccc21`, the photoluminescence quantum yield (in CO) is reported as 0.14.

Molecule `COc1ccc(C2=C3C(/C=C/c4cc(OC)c(OC)c(OC)c4)=C(C=O)C(C)=[N+]3[B-](F)(F)n3c(/C=C/c4cc(OC)c(OC)c(OC)c4)c(C=O)c(C=Cc4cc(OC)c(OC)c(OC)c4)c32)cc1` has a photoluminescence quantum yield (in ClCCl) of 0.1.

With `Fc1ccc2cc3cccc[n+]3cc2c1` the photoluminescence quantum yield (in O) was 0.34.

For `c1cc2c3c(c1)OCCCCCCCCOc1cccc(c1-c1c4ccccc4c-3c3ccccc13)OCCCCCCCCO2`, the photoluminescence quantum yield (in C1CCCCC1) was 0.95.

With `C(#Cc1ccccc1)C(C#Cc1ccccc1)=Cc1ccc(C=C(C#Cc2ccccc2)C#Cc2ccccc2)s1` the photoluminescence quantum yield (in ClC(Cl)Cl) was 0.09 and 0.08.

For `O=Cc1cc(C=O)c2ccc3c(N4CCCCC4)cc(N4CCCCC4)c4ccc1c2c43`, the photoluminescence quantum yield (in C1COCCO1) was 0.92, the photoluminescence quantum yield (in CC#N) was 0.88 and the photoluminescence quantum yield (in CC(C)=O) was 0.9. The photoluminescence quantum yield (in CCCCCC) was 0.93, the photoluminescence quantum yield (in CCO) was 0.87 and the photoluminescence quantum yield (in CCOC(C)=O) was 0.93. For the same molecule, the photoluminescence quantum yield (in CO) was 0.83, the photoluminescence quantum yield (in CS(C)=O) was 0.75 and the photoluminescence quantum yield (in Cc1ccccc1) was 0.94. It also gave a photoluminescence quantum yield (in ClCCl) of 0.91.

In the case of `CC(C)(C)c1ccc2c(c1)c1cc(C(C)(C)C)ccc1n2-c1ccc(-n2c3ccc(C(C)(C)C)cc3c3cc(C(C)(C)C)ccc32)c(-c2nccnc2C#N)c1`, the photoluminescence quantum yield (in Cc1ccccc1) is reported as 0.05 and the photoluminescence quantum yield (in c1cc(-n2c3ccccc3c3ccccc32)cc(-n2c3ccccc3c3ccccc32)c1) is reported as 0.44.

With `C(=C\c1ncc2ccccc2n1)/c1ccc(N2CCCCC2)cc1` the photoluminescence quantum yield (in ClCCl) was 0.21.

For `F[B-]1(F)n2cccc2C=C2c3ccccc3C(c3ccc[nH]3)=[N+]21`, the photoluminescence quantum yield (in C1CCOC1) was 0.82, the photoluminescence quantum yield (in CC#N) was 0.8 and the photoluminescence quantum yield (in CCCCCC) was 0.83. The photoluminescence quantum yield (in CO) was 0.76, the photoluminescence quantum yield (in Cc1ccccc1) was 0.81 and the photoluminescence quantum yield (in ClCCl) was 0.8.

`COC(=O)CCC1=CC(C#Cc2ccsc2)=[N+]2C1=Cc1c(CCC(=O)OC)cc(C#Cc3ccsc3)n1[B-]2(F)F` showed a photoluminescence quantum yield (in ClCCl) of 0.39.

In the case of `COC(=O)C(NC(=O)OC(C)(C)C)c1ccc2oc(-c3cc(OC)ccc3OC)nc2c1` (stereo not drawn), the photoluminescence quantum yield (in CC1CCCCC1) is reported as 0.51, the photoluminescence quantum yield (in CC#N) is reported as 0.35 and the photoluminescence quantum yield (in CO) is reported as 0.37.

Work on `O=C(Cc1ccccc1)OCc1ccc2c3cccc4cccc(c5cccc1c52)c43` yielded a photoluminescence quantum yield (in CCO) of 0.92.

Molecule `C[n+]1ccc(/C=C/c2ccc(N(c3ccccc3)c3ccc(/C=C/c4cc[n+](C)cc4)cc3)cc2)cc1` has a photoluminescence quantum yield (in ClCCl) of 0.64, a photoluminescence quantum yield (in O) of 0.08 and a photoluminescence quantum yield (in OCC(O)CO) of 0.11.

Molecule `Cc1cccc(-c2cnc3ccc4ccccc4n23)c1` has a photoluminescence quantum yield (in ClCCl) of 0.55.

For `CC(=O)c1cc(=O)n(C)c2cc(-c3ccc(N(C)C)cc3)sc12`, the photoluminescence quantum yield (in ClCCl) was 0.18.

Molecule `CCCCCCCCCCCCOc1ccc(C2=C3C(=O)N(CC(OCC)OCC)C(c4ccc(OCCCCCCCCCCCC)c(OCCCCCCCCCCCC)c4)=C3C(=O)N2CC(OCC)OCC)cc1OCCCCCCCCCCCC` has a photoluminescence quantum yield (in ClC(Cl)Cl) of 0.9.

`CCCC1(CCC)c2cc(-c3ccc4c(c3)C(CCC)(CCC)c3cc(C(C)(C)CC)ccc3-4)ccc2-c2ccc(-c3ccc4c(c3)C(CCC)(CCC)c3cc(C(C)(C)CC)ccc3-4)cc21` gave a photoluminescence quantum yield (in C1CCCCC1) of 0.93.

`CCCCCCN1C(=O)c2cccc3c(-c4ccc(C)s4)ccc(c23)C1=O` showed a photoluminescence quantum yield (in ClC(Cl)Cl) of 0.78.

With `CC(=O)Nc1cc2ccc3cccc4ccc(c1)c2c34` the photoluminescence quantum yield (in CC#N) was 0.09, the photoluminescence quantum yield (in CCCCOCCCC) was 0.1 and the photoluminescence quantum yield (in CO) was 0.07.

Molecule `CC1(C)c2cc(-n3c4ccccc4c4ccccc43)ccc2N(c2ccc(-c3cc(-c4ccccc4)nc(-c4ccccc4)n3)cc2)c2ccc(-n3c4ccccc4c4ccccc43)cc21` has a photoluminescence quantum yield (in O=P(c1ccccc1)(c1ccccc1)c1ccccc1Oc1ccccc1P(=O)(c1ccccc1)c1ccccc1) of 0.81.

In the case of `c1cc(N2CCCC2)ccn1`, the photoluminescence quantum yield (in CC1CCCCC1) is reported as 0.09 and the photoluminescence quantum yield (in ClC(Cl)Cl) is reported as 0.03.

`CC[Si](C)(C)c1cc2ccc3cccc4ccc(c1C(=O)NC(C)(C)C)c2c34` showed a photoluminescence quantum yield (in ClC(Cl)Cl) of 0.156.

For `CN(C)c1ccc2c(c1)[Si](C)(C)C1=CC(=[N+](C)C)C=CC1=C2C#Cc1ccccc1`, the photoluminescence quantum yield (in CO) was 0.07 and the photoluminescence quantum yield (in O) was 0.004.

Work on `O=[N+]([O-])c1ccc(/C=C/c2cn(S(=O)(=O)c3ccccc3)c3ccccc23)cc1` yielded a photoluminescence quantum yield (in CC#N) of 0.066, a photoluminescence quantum yield (in CCCCCCC) of 0.004 and a photoluminescence quantum yield (in CO) of 0.002. The photoluminescence quantum yield (in O) was 0.003.

`C#Cc1ccc(-c2c3nc(c(-c4ccc(C#C)cc4)c4ccc([nH]4)c(-c4cc(C(C)(C)C)cc(C(C)(C)C)c4)c4cc(c(-c5cc(C(C)(C)C)cc(C(C)(C)C)c5)c5ccc2[nH]5)C=N4)C=C3)cc1` gave a photoluminescence quantum yield (in ClCCl) of 0.0269.

With `CCCCC1C(=O)c2cc(Oc3ccc(C(C)(C)C)cc3)c3c4c(Oc5ccc(C(C)(C)C)cc5)cc5c6c(cc(Oc7ccc(C(C)(C)C)cc7)c(c7c(Oc8ccc(C(C)(C)C)cc8)cc(c2c37)C1=O)c64)C1=C(C5=O)c2ccc3ccccc3[n+]2[B-](F)(F)O1` (stereo not drawn) the photoluminescence quantum yield (in ClCCl) was 0.5.

For `CC1=C2C3=C(CCc4ccccc43)C(C)=[N+]2[B-](F)(F)n2c(C)c3c(c21)-c1ccccc1CC3`, the photoluminescence quantum yield (in CC#N) was 0.38.

`O=C1[C@@H]2[C@H](C(=O)N1c1cccc3cc4ccccc4cc13)[C@H]1C[C@@H]2c2c1c(-c1ccccc1)c1ccccc1c2-c1ccccc1` showed a photoluminescence quantum yield (in ClC(Cl)Cl) of 0.28.

`N=c1oc2cccc3c4c(-c5ccccc5)oc5cccc(c(c1-c1ccccc1)c23)c54` gave a photoluminescence quantum yield (in ClC(Cl)Cl) of 0.04.

For `CC(=O)c1ccc(-c2nc3ccc(N(C)C)c(Cl)c3s2)cc1`, the photoluminescence quantum yield (in C1CCCCC1) was 0.5, the photoluminescence quantum yield (in CC#N) was 0.7 and the photoluminescence quantum yield (in CO) was 0.054. It also gave a photoluminescence quantum yield (in ClC(Cl)Cl) of 0.9.

For `O=Cc1ccc(-c2ccc(C3=CCC(c4ccccc4)CC3)s2)s1` (stereo not drawn), the photoluminescence quantum yield (in CCO) was 0.29.

With `Oc1ccc2ncccc2c1` the photoluminescence quantum yield (in CC#N) was 0.088, the photoluminescence quantum yield (in CCCC#N) was 0.086 and the photoluminescence quantum yield (in CO) was 0.107. It also gave a photoluminescence quantum yield (in Cc1ccccc1) of 0.008 and a photoluminescence quantum yield (in ClCCl) of 0.043.

For `CCOC(=O)c1cc(C(=O)OCC)c2cccc(O)c2n1`, the photoluminescence quantum yield (in CCO) was 0.17.

Molecule `CCCCCCCCCCOc1cc(OCCCCCCCCCC)cc(C2=C3C(C)=CC(/C=C/c4ccc(OC)cc4)=[N+]3[B-](F)(F)n3c(/C=C/c4ccc(OC)cc4)cc(C)c32)c1` has a photoluminescence quantum yield (in ClC(Cl)Cl) of 0.37.

In the case of `CCCCCCCCOc1ccc(C#Cc2ccc3c(c2)c2ccccc2n3CCCCCCCC)c(OCCCCCCCC)c1`, the photoluminescence quantum yield (in ClCCl) is reported as 0.33.

`CN(C)c1ccc(C#Cc2ccc(C#Cc3ccc(C#Cc4ccccc4C#N)cc3C#N)cc2C#N)cc1` gave a photoluminescence quantum yield (in C1CCOC1) of 0.084, a photoluminescence quantum yield (in CC#N) of 0.002 and a photoluminescence quantum yield (in CN(C)C=O) of 0.002. For the same molecule, the photoluminescence quantum yield (in ClC(Cl)Cl) was 0.999 and the photoluminescence quantum yield (in c1ccccc1) was 0.999.

`CN(C)c1ccc(/C=C/c2cc(/C=C/c3ccc(N(C)C)cc3)nc(/C=C/c3ccc(C(F)(F)F)cc3)n2)cc1` showed a photoluminescence quantum yield (in ClCCl) of 0.72.
